Test results taken from PMC9329436, “Optimization of the 4-anilinoquin(az)oline scaffold as epidermal growth factor receptor (EGFR) inhibitors for chordoma utilizing a toxicology profiling assay platform” (Scientific Reports, 2022).
Like-named read-outs stand apart in the source and are kept apart here.

Assays:
[1] = tested on: U-CH12 patient-derived chordoma cell line; test: Cell viability assay (alamarBlue, 72 h), U-CH12; assay type: cell-based, human; conditions: n = 4, 72 h
Summary of the method: (§1)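 Patient-derived chordoma lines and WS1 fibroblasts seeded in 384-well plates, dosed in quadruplicate 24 h after plating.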

[2] = molecular target: 320 wild-type protein kinases (Homo sapiens, UniProt Q9HAZ1); assay type: biochemical; conditions: singlicate
320 wild-type protein kinases (Homo sapiens, UniProt Q9HAZ1), sequence (Q9HAZ1 whole entry): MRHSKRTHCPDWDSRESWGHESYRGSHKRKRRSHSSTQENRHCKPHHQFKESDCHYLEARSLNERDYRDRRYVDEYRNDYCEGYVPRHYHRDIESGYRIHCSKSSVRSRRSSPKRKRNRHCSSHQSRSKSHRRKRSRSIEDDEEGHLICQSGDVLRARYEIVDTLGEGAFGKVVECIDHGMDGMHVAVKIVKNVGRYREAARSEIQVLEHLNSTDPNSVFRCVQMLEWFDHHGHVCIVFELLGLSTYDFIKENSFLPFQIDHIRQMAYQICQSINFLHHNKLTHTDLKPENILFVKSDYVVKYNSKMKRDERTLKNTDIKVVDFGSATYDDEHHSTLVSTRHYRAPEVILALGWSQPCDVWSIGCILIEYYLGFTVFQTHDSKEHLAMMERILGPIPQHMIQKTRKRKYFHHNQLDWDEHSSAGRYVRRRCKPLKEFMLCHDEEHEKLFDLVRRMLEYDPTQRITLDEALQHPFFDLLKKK
From the text: (§2) Table S4. Profiling of two compounds at two concentrations against 320 wild-type protein kinases; singlicate measurement; Residual activities (% of control).

[3] = molecular target: T1, 320 wild-type protein kinases (Homo sapiens, UniProt P30530); assay type: biochemical; conditions: AXL, singlicate
T1 sequence (P30530 26-894): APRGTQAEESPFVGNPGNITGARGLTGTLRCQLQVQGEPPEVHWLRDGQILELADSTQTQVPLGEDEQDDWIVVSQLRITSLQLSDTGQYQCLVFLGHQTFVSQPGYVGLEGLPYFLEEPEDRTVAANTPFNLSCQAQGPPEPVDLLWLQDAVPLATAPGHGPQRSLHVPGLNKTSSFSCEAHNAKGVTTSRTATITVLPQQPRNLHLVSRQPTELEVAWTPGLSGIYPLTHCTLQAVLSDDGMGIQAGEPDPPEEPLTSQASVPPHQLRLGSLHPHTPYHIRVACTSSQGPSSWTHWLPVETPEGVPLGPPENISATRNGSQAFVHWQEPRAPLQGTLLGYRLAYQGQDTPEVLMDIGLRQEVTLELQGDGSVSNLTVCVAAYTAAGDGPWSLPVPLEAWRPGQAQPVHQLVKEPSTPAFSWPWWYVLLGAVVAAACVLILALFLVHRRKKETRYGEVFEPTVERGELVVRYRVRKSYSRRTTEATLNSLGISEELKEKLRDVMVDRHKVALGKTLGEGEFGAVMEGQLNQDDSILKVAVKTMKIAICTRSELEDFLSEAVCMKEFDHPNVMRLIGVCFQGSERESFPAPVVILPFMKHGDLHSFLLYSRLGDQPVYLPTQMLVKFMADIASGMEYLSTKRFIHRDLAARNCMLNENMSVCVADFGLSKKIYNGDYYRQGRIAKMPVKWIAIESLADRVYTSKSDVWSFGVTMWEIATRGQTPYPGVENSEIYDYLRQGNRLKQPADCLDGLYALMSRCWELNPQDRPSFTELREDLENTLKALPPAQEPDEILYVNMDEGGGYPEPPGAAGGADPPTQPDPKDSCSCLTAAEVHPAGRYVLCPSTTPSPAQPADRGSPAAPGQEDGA
From the text: as §2

[4] = molecular target: 320 wild-type protein kinases (Homo sapiens, UniProt Q9UBS0); assay type: biochemical; conditions: kinase S6K-beta, singlicate
320 wild-type protein kinases (Homo sapiens, UniProt Q9UBS0), sequence (Q9UBS0 whole entry): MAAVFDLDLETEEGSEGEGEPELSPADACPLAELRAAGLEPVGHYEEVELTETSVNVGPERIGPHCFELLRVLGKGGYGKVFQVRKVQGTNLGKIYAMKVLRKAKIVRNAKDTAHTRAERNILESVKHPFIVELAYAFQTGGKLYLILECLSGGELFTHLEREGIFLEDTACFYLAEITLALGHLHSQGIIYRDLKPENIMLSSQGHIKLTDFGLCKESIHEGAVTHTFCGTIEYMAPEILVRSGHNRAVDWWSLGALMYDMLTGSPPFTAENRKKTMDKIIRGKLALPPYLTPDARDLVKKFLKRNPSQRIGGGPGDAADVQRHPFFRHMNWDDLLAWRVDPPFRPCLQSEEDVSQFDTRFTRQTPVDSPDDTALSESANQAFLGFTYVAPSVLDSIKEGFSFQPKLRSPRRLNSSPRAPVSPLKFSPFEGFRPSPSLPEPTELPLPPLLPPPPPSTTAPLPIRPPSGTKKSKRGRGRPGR
From the text: as §2

[5] = molecular target: 320 wild-type protein kinases (Homo sapiens, UniProt Q9NQU5); assay type: biochemical; conditions: singlicate
320 wild-type protein kinases (Homo sapiens, UniProt Q9NQU5), sequence (Q9NQU5 whole entry): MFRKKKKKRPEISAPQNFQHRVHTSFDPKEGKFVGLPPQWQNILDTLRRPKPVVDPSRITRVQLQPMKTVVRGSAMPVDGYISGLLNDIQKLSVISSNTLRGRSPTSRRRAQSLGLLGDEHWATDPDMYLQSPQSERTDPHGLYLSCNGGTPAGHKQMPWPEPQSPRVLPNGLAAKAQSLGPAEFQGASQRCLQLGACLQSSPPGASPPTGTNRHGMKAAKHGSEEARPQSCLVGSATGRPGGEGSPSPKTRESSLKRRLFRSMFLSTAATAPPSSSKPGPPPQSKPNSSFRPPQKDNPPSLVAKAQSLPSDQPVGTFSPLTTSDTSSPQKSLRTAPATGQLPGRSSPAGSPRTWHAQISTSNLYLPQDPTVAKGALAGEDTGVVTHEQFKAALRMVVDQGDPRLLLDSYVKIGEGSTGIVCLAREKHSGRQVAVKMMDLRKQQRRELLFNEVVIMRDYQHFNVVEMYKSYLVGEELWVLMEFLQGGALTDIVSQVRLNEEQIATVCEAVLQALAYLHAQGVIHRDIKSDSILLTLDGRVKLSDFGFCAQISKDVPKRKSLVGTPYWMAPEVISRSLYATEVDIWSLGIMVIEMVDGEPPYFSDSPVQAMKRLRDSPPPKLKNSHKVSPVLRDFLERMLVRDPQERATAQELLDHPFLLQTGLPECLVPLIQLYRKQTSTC
From the text: as §2

[6] = molecular target: 320 wild-type protein kinases (Homo sapiens, UniProt Q04759); assay type: biochemical; conditions: PKC-theta, singlicate
320 wild-type protein kinases (Homo sapiens, UniProt Q04759), sequence (Q04759 whole entry): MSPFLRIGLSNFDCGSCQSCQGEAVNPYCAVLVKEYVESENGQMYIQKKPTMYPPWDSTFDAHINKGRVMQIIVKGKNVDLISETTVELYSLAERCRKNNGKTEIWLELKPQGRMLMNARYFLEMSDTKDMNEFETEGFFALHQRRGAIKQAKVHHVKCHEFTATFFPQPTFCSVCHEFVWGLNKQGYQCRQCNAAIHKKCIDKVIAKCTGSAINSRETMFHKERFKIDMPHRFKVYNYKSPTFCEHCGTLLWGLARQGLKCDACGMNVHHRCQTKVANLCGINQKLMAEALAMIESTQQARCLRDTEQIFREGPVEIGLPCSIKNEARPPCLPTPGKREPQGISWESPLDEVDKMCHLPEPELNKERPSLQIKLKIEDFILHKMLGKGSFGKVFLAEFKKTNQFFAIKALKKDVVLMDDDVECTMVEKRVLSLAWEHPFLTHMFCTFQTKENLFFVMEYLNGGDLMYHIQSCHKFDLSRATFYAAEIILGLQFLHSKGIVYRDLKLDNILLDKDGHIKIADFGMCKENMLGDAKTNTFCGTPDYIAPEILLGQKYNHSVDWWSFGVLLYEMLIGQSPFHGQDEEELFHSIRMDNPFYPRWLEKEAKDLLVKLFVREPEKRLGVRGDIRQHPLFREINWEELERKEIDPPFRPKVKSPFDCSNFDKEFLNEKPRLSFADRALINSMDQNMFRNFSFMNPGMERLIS
From the text: as §2

[7] = molecular target: T2, 320 wild-type protein kinases (Homo sapiens, UniProt Q96KB5); assay type: biochemical; conditions: PBK, singlicate
T2 sequence (Q96KB5 1-322): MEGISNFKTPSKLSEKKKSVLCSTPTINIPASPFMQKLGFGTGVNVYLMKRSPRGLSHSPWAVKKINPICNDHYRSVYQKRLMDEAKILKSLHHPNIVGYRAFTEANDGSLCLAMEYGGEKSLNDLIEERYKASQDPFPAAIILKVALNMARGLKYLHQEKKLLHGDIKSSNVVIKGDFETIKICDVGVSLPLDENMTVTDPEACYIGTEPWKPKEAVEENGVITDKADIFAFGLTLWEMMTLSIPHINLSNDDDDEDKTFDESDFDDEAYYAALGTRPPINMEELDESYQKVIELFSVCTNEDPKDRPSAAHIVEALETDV
From the text: as §2

[8] = molecular target: 320 wild-type protein kinases (Homo sapiens, UniProt Q13554); assay type: biochemical; conditions: CAMK2B, singlicate
320 wild-type protein kinases (Homo sapiens, UniProt Q13554), sequence (Q13554 whole entry): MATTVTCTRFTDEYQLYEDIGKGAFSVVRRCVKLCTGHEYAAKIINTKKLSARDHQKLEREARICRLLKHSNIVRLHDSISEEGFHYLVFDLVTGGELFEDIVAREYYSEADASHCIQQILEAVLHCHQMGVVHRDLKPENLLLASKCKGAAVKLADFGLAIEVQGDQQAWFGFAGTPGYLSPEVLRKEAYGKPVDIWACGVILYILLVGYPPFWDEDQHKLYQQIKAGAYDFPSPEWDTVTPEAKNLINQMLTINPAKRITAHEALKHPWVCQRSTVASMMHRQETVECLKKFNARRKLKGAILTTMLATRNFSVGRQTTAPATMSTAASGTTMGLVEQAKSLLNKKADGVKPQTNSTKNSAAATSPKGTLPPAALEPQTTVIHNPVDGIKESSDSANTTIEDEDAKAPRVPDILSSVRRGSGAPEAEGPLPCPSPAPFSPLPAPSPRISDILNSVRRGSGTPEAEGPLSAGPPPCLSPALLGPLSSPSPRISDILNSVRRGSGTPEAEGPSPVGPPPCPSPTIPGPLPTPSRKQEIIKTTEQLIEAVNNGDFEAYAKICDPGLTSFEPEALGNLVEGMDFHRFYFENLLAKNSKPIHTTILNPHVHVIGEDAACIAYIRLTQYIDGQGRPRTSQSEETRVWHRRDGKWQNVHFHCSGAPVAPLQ
From the text: as §2

[9] = molecular target: 320 wild-type protein kinases (Homo sapiens, UniProt Q9UEW8); assay type: biochemical; conditions: kinase STK39, singlicate
From the text: as §2

[10] = molecular target: 320 wild-type protein kinases (Homo sapiens, UniProt P24941); assay type: biochemical; conditions: singlicate
From the text: as §2

[11] = molecular target: 320 wild-type protein kinases (Homo sapiens, UniProt Q86UE8); assay type: biochemical; conditions: kinase TLK2, singlicate
320 wild-type protein kinases (Homo sapiens, UniProt Q86UE8), sequence (Q86UE8 whole entry): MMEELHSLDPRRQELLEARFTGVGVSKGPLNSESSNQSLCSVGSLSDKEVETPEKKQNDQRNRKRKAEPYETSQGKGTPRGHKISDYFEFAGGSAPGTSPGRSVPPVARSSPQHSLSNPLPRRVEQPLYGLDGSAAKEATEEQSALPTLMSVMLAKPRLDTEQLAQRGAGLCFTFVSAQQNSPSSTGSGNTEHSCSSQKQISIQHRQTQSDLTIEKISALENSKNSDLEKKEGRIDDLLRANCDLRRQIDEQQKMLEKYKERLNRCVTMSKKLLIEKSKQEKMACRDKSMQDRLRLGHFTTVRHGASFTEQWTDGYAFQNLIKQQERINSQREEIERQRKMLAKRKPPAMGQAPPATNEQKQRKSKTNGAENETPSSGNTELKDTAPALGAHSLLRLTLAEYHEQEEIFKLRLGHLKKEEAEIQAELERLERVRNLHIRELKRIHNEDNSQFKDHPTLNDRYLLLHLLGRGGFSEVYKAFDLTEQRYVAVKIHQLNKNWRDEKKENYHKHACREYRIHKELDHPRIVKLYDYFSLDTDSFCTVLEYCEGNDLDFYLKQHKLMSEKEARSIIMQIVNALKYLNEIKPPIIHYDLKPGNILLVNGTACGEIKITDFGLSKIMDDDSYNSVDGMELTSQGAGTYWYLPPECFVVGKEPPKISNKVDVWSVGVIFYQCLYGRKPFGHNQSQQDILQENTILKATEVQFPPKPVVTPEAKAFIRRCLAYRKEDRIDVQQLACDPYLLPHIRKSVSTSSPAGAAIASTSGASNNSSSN
From the text: as §2

[12] = molecular target: 320 wild-type protein kinases (Homo sapiens, UniProt P11802); assay type: biochemical; conditions: singlicate
320 wild-type protein kinases (Homo sapiens, UniProt P11802), sequence (P11802 whole entry): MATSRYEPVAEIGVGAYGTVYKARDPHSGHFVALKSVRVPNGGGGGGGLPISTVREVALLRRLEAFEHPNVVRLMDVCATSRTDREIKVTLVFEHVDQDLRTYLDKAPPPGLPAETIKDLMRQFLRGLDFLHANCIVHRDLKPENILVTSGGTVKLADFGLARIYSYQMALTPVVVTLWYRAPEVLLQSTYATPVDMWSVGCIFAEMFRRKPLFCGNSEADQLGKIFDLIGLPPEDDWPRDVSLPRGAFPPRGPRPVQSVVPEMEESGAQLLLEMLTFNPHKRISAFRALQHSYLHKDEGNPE
From the text: as §2

[13] = molecular target: 320 wild-type protein kinases (Homo sapiens, UniProt Q9BQI3); assay type: biochemical; conditions: HRI, singlicate
320 wild-type protein kinases (Homo sapiens, UniProt Q9BQI3), sequence (Q9BQI3 whole entry): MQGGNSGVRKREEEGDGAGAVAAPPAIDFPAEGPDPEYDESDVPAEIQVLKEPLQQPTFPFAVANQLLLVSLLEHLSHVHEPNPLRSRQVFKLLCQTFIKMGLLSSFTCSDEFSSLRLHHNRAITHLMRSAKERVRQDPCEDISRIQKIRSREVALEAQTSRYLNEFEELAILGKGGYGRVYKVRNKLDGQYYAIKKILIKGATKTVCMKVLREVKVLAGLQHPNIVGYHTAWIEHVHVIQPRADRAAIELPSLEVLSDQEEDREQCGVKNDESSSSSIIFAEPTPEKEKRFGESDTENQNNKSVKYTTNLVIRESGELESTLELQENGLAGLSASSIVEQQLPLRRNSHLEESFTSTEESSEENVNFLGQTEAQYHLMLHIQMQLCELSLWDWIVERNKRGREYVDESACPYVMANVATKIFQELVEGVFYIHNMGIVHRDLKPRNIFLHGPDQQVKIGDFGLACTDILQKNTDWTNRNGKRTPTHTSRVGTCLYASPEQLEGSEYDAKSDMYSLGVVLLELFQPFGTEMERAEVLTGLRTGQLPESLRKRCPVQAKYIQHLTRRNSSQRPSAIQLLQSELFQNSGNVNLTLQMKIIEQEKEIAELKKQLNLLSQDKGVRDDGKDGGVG
From the text: as §2

[14] = molecular target: 320 wild-type protein kinases (Homo sapiens, UniProt Q16620); assay type: biochemical; conditions: kinase TRK-B, singlicate
From the text: as §2

[15] = tested on: UM-Chor1 patient-derived chordoma cell line; test: Cell viability assay (alamarBlue, 72 h), UM-Chor1; assay type: cell-based, human; conditions: n = 4, 72 h
Summary of the method: as §1

SMILES | IC50 [1] [nM] | Residual activity ([2]; CLK4, 1.0E-06 M) | Residual activity ([2]; CLK4, 1.0E-07 M) | Residual activity ([3]; 1.0E-06 M) | Residual activity ([3]; 1.0E-07 M) | Residual activity, S6K-beta ([4]; assay conc. 1.0E-06 M) | Residual activity, S6K-beta ([4]; assay conc. 1.0E-07 M) | Residual activity ([5]; PAK6, 1.0E-06 M) | Residual activity ([5]; PAK6, 1.0E-07 M) | Residual activity ([6]; 1.0E-06 M) | Residual activity ([6]; 1.0E-07 M) | Residual activity ([7]; 1.0E-06 M) | Residual activity ([7]; 1.0E-07 M) | Residual activity ([8]; 1.0E-06 M) | Residual activity ([8]; 1.0E-07 M) | Residual activity, STK39 ([9]; assay conc. 1.0E-06 M) | Residual activity, STK39 ([9]; assay conc. 1.0E-07 M) | Residual activity ([10]; CDK2/CycA2, 1.0E-06 M) | Residual activity ([10]; CDK2/CycA2, 1.0E-07 M) | Residual activity ([10]; CDK2/CycE1, 1.0E-06 M) | further results
C#Cc1cc(Nc2ncnc3cc(I)ccc23)ccc1Cl [Compound 41] | 960 | 112 % of control | 111 % of control | 97 % of control | 116 % of control | 102 % of control | 96 % of control | 88 % of control | 97 % of control | 102 % of control | 101 % of control | 110 % of control | 98 % of control | 86 % of control | 84 % of control | 98 % of control | 106 % of control | 90 % of control | 88 % of control | 76 % of control | Residual activity ([10]; CDK2/CycE1, 1.0E-07 M): 97 % of control; Residual activity, TLK2 ([11]; assay conc. 1.0E-06 M): 109 % of control; Residual activity, TLK2 ([11]; assay conc. 1.0E-07 M): 117 % of control; Residual activity ([12]; CDK4/CycD1, 1.0E-06 M): 79 % of control; Residual activity ([12]; CDK4/CycD1, 1.0E-07 M): 75 % of control; Residual activity ([12]; CDK4/CycD3, 1.0E-06 M): 87 % of control; Residual activity ([12]; CDK4/CycD3, 1.0E-07 M): 94 % of control; Residual activity ([13]; 1.0E-06 M): 89 % of control; Residual activity ([13]; 1.0E-07 M): 108 % of control; Residual activity, TRK-B ([14]; assay conc. 1.0E-06 M): 98 % of control; Residual activity, TRK-B ([14]; assay conc. 1.0E-07 M): 107 % of control; IC50 [15]: 25 µM
C#Cc1cc(Nc2ncnc3cc(OC)c(OC)cc23)ccc1Cl [Compound 45] | 3000 | 69 % of control | 100 % of control | 80 % of control | 103 % of control | 86 % of control | 105 % of control | 87 % of control | 98 % of control | 101 % of control | 109 % of control | 80 % of control | 91 % of control | 103 % of control | 81 % of control | 91 % of control | 102 % of control | 97 % of control | 95 % of control | 86 % of control | Residual activity ([10]; CDK2/CycE1, 1.0E-07 M): 91 % of control; Residual activity, TLK2 ([11]; assay conc. 1.0E-06 M): 103 % of control; Residual activity, TLK2 ([11]; assay conc. 1.0E-07 M): 111 % of control; Residual activity ([12]; CDK4/CycD1, 1.0E-06 M): 95 % of control; Residual activity ([12]; CDK4/CycD1, 1.0E-07 M): 87 % of control; Residual activity ([12]; CDK4/CycD3, 1.0E-06 M): 87 % of control; Residual activity ([12]; CDK4/CycD3, 1.0E-07 M): 94 % of control; Residual activity ([13]; 1.0E-06 M): 87 % of control; Residual activity ([13]; 1.0E-07 M): 101 % of control; Residual activity, TRK-B ([14]; assay conc. 1.0E-06 M): 97 % of control; Residual activity, TRK-B ([14]; assay conc. 1.0E-07 M): 98 % of control; IC50 [15]: 60 µM
